Entries after “also recorded” stand apart in the source; their conditions may differ.
System: isolated naive human neutrophils
Experiment: Pseudopod formation test: protease inhibitors against pancreatic homogenate-induced neutrophil activation
Type: cell-based
Protocol: For the pseudopod assay, venous blood is collected in heparinized tubes from healthy human volunteers and put on ice. It is important that heparin and not EDTA ([…]) be used as an anticoagulant, as the calcium-chelating properties of EDTA can affect neutrophil activation. […] Other chemicals for the Krebs-Henseleit buffer are from Fisher Scientific, Fair Lawn, N.J. The resuspended cells are then gently layered onto 2.5 ml of a 55% isotonic Percoll (Sigmal Chemical Company) solution and 2.5 ml of a 74% isotonic Percoll solution in deionized water. The suspension is centrifuged for 15 minutes at 600 G and the middle granulocyte layer is removed and resuspended in PBS to achieve a concentration of 10^6 neutrophils/ml. 100 μl aliquots of suspended neutrophils are added to 100 μl of test plasma or activating agent. This mixture is mixed and then incubated for 10 minutes at 27° C. After incubation 100 μl of 3% glutaraldehyde (Fisher Scientific) is added to stop the reaction. 100 μl of crystal violet in phosphate (pH: 7.4) buffer is then added to stain leukocyte nuclei on wet mount preparations. Freely suspended neutrophils with pseudopodia are identified by their segmented nuclei and the presence of cytoplasmic granules. One hundred neutrophils are counted. Cells with pseudopod projection greater than about 1 um are considered positive.
Rat homogenate was collected as described in detail in Example 5. Briefly, male Wistar rats (250-350 gm) were housed in a controlled environment and maintained on a standard pellet diet for at least three days before initiation of experimental procedures. Animals were cannulated via the femoral arteries and vein under general anesthesia using pentobarbital (50 mg/kg i.m.). The rats were exsanguinated and the heart, liver, spleen, small intestine, and pancreas removed. The organs were immediately washed and cleaned in cold 0.25 M sucrose solution. Then, the cleaned organs were vigorously homogenized in Krebs-Henseleit solution ([…]). Aliquots were filtered by centrifugation at 500 G for 10 min. Pancreatic homogenates were incubated for 2.5 hours at 38° C., stirred frequently. Incubated pancreatic homogenate as well as controls were tested against naive human donor neutrophils for pseudopod formation as described in Example 2.
To determine whether or not neutrophil activation by pancreatic homogenate is protease dependent, the pseudopod formation test was repeated by preincubation of isolated neutrophils with various protease inhibitors (50 μl) for 10 minutes followed by addition of pancreas homogenate (50 μl) and further incubation for 10 minutes. […] All protease inhibitors were the gift of Dr. Tony E. Hugli of The Scripps Clinic and Research Institute, with the exception of Complete™, an all-purpose protease inhibitor purchased from Boehringer Mannheim, Indianapolis, Ind. One of the components of Complete™ is EDTA (ethylenediaminetetra-acetic acid), a standard anti-coagulant and divalent cation chelator.
To determine whether the protease inhibitors were acting on the pancreatic homogenate or the neutrophils themselves, a new set of neutrophil pseudopod experiments was carried out. […] Appropriate controls were recorded as well as a positive control (10^−7 M fMLP) to determine the washed cells' ability to respond to stimuli. Formyl-methionyl-leucyl-phenylalanine (fMLP) was obtained from Sigma Chemical Company, St. Louis, Mo.

CS(=O)(=O)O.CS(=O)(=O)O.N=C(N)Nc1ccc(C(=O)Oc2ccc3cc(C(=N)N)ccc3c2)cc1 [Futhan, 6-amidino-2-naphthyl p-guanidinobenzoate dimethanesulfonate]
percent neutrophil activation, Wash group (neutrophils incubated 10 min with Futhan 0.1 mg/ml, washed two times, then pancreatic homogenate 10 min): 53.5±31%
percent neutrophil pseudopod formation (activation) by rat pancreatic homogenate in presence of protease inhibitor (neutrophils preincubated 10 min with inhibitor (PMSF 1 mM; Complete 1 tablet/20 ml; Benzamidine 1150 μM; Futhan 0.1 mg/ml; aprotinin 20 μM), then homogenate 10 min, homogenate alone 85.1±11.5%): 30.3±11.8%
inhibition of pancreatic homogenate-induced neutrophil activation (in words) (pseudopod formation, rat pancreatic homogenate, dimethanesulfonate): abolished pancreatic homogenate-induced activation; also recorded: dose-dependent inhibition
percent neutrophil activation, Inhibitor group (washed neutrophils incubated with combined Futhan 0.1 mg/ml and pancreatic homogenate): 51.5±34%

From patent publication US20030190368A1, “METHODS OF DIAGNOSIS AND TRIAGE USING CELL ACTIVATION MEASURES” (priority 1998, published 2003)
